In publication PMC11995724, “Antibiotic target discovery by integrated phenotypic and activity-based profiling of electrophilic fragments” (Cell chemical biology, 2025) one finds viability data, which are given here for 52 molecules.

Counter-ions that a name gives are not always drawn.

What is called viability is a read-out of living cells in per cent, often relative to untreated cells.

The data set in a line: in vitro. The conditions noted are these: human, hek293t cells.
Method: Mammalian cytotoxicity measurement was performed using Cell Titer-Glo 2.0 Cell Viability Assay (Promega, G9243) according to the manufacturer protocol. In brief, mammalian cells were seeded into 384-well white plates (Greiner, 781080) and incubated at 37°C for one day. Compounds from the Cys-Library were dispensed into the assay plate using epMotion 96. The plates were then incubated at 37°C for two days. An equal volume of Cell Titer-Glo 2.0 reagent was added into each well of the assay plate using epMotion 96 and incubated at 22°C for 10 min, followed by luminescence measurement using a Cytation 5 plate reader (BioTek).
Take `C=CC(=O)NC1CS(=O)(=O)C1` [3-P18, N-(1,1-dioxo-1lambda6-thietan-3-yl)prop-2-enamide]: the viability at 48 h, 25 µM worked out at 105%.
For `C=CC(=O)NCc1ccccc1-n1nc(C)cc1C` [3-P19, N-{[2-(3,5-dimethyl-1H-pyrazol-1-yl)phenyl]methyl}prop-2-enamide] the value was 59.1%; for `C=CC(=O)N1CCN(c2nccn(C)c2=O)CC1` [3-P20, 1-methyl-3-[4-(prop-2-enoyl)piperazin-1-yl]-1,2-dihydropyrazin-2-one], 181%; for `C=CC(=O)N1CCC(n2nc(C)nc2O)CC1` [3-P21, 1-[4-(5-hydroxy-3-methyl-1H-1,2,4-triazol-1-yl)piperidin-1-yl]prop-2-en-1-one], 49.8%.
Consider `C=CC(=O)NCc1ccc(-c2noc(C)n2)cc1` [3-P22, N-{[4-(5-methyl-1,2,4-oxadiazol-3-yl)phenyl]methyl}prop-2-enamide], for which the viability at 48 h, 25 µM worked out at 94.1%.
For `Cc1ccc(N(CCC#N)C(=O)CCl)cc1C` [4-A03, 2-chloro-N-(2-cyanoethyl)-N-(3,4-dimethylphenyl)acetamide] the value was 0.265%; for `CC(Cl)C(=O)Nc1ccc(F)c(Cl)c1` (stereo not shown) [4-A04, 2-chloro-N-(3-chloro-4-fluorophenyl)propanamide], 56.5%; for `O=C(CCl)NCc1cc([N+](=O)[O-])ccc1O` [4-A05, 2-chloro-N-[(2-hydroxy-5-nitrophenyl)methyl]acetamide], 1.29%.
Take `O=C(CCl)Nc1sc2c(c1C(=O)c1ccccc1)CCCC2` [4-A06, N-(3-benzoyl-4,5,6,7-tetrahydro-1-benzothiophen-2-yl)-2-chloroacetamide]: the viability at 48 h, 25 µM turned out to be 0.213%.
In the case of `Cc1ccc(NC(=O)CCl)c([N+](=O)[O-])c1` [4-A07, 2-chloro-N-(4-methyl-2-nitrophenyl)acetamide], the viability at 48 h, 25 µM worked out at 2.99%.
As to `O=C(CCl)NC(c1ccccc1)c1ccco1` (stereo not shown) [4-A08, 2-chloro-N-[(furan-2-yl)(phenyl)methyl]acetamide], the viability at 48 h, 25 µM was found to be 2.75%.
The result for `Cc1ccc(NC(=O)CCl)cc1S(=O)(=O)N(C)C` [4-A09, 2-chloro-N-[3-(dimethylsulfamoyl)-4-methylphenyl]acetamide] reads -0.165%; that for `O=C(CCl)NCCN1C(=O)SC(=Cc2ccccc2F)C1=O` [4-A10, 2-chloro-N-(2-{5-[(2-fluorophenyl)methylidene]-2,4-dioxo-1,3-thiazolidin-3-yl}ethyl)acetamide], -0.106%.
Take `COc1ccc(-c2csc(NC(=O)CCl)n2)c(O)c1` [4-A11, 2-chloro-N-[4-(2-hydroxy-4-methoxyphenyl)-1,3-thiazol-2-yl]acetamide]: the viability at 48 h, 25 µM was -0.257%.
For `CC(Cl)C(=O)Nc1ccc(S(=O)(=O)N2CCCCC2)cc1` (stereo not shown) [4-A12, 2-chloro-N-[4-(piperidine-1-sulfonyl)phenyl]propanamide] the value was 64.8%; for `COc1ccc(C(NC(=O)CCl)C(C)C)cc1` (stereo not shown) [4-A13, 2-chloro-N-[1-(4-methoxyphenyl)-2-methylpropyl]acetamide], 11.2%.
Turning to `CC(Cl)C(=O)Nc1ccc(Cl)cc1C(F)(F)F` (stereo not shown) [4-A14, 2-chloro-N-[4-chloro-2-(trifluoromethyl)phenyl]propanamide], the viability at 48 h, 25 µM came out at 50.2%.
For `NC(=O)CSc1ccccc1NC(=O)CCl` [4-A15, 2-{[2-(2-chloroacetamido)phenyl]sulfanyl}acetamide] the value was 1.71%; for `Cc1cc(C(C)(C)C)cc(C)c1CCNC(=O)CCl` [4-A16, N-[2-(4-tert-butyl-2,6-dimethylphenyl)ethyl]-2-chloroacetamide], 0.58%.
For the molecule `CC(C)Cc1nnc(NC(=O)CCl)s1` [4-A17, 2-chloro-N-[5-(2-methylpropyl)-1,3,4-thiadiazol-2-yl]acetamide], the viability at 48 h, 25 µM was 0.521%.
The result for `CN(CC(=O)NCc1ccco1)C(=O)CCl` [4-A18, 2-chloro-N-({[(furan-2-yl)methyl]carbamoyl}methyl)-N-methylacetamide] reads 0.0249%.
For `COc1ccc2cc(CN(C)C(=O)CCl)ccc2c1` [4-A19, 2-chloro-N-[(6-methoxynaphthalen-2-yl)methyl]-N-methylacetamide] the value was -0.134%; for `O=C(CCl)Nc1cc(-c2ccccc2)nn1-c1ccccc1` [4-A20, 2-chloro-N-(1,3-diphenyl-1H-pyrazol-5-yl)acetamide], 0.296%.
For `Cc1ccc(Oc2ccc(Cl)cc2NC(=O)CCl)cc1` [4-A21, 2-chloro-N-[5-chloro-2-(4-methylphenoxy)phenyl]acetamide] the value was 98.6%.
For the molecule `O=C(CCl)N1N=C(c2ccccc2)CC1c1ccc2nccnc2c1` (stereo not shown) [4-A22, 2-chloro-1-[3-phenyl-5-(quinoxalin-6-yl)-4,5-dihydro-1H-pyrazol-1-yl]ethan-1-one], the viability at 48 h, 25 µM was 0.127%.
For the molecule `CC(NC(=O)CCl)c1ccc2c(c1)CCCC2` (stereo not shown) [4-B03, 2-chloro-N-[1-(5,6,7,8-tetrahydronaphthalen-2-yl)ethyl]acetamide], the viability at 48 h, 25 µM was found to be 1.06%.
The result for `O=C(CCl)Nc1cc(C(=O)O)cc(C(=O)O)c1` [4-B04, 5-(2-chloroacetamido)benzene-1,3-dicarboxylic acid] reads 107%; that for `CN(CC(=O)Nc1ccc(F)cc1)C(=O)CCl` [4-B05, 2-chloro-N-{[(4-fluorophenyl)carbamoyl]methyl}-N-methylacetamide], 0.41%; that for `O=C(CCl)Nc1cc(Cl)c(Cl)cc1Cl` [4-B06, 2-chloro-N-(2,4,5-trichlorophenyl)acetamide], 0.135%.
The result for `CC(NC(=O)c1ccccc1NC(=O)CCl)c1ccccc1` (stereo not shown) [4-B07, 2-(2-chloroacetamido)-N-(1-phenylethyl)benzamide] reads 0.478%; that for `COc1ccc(NC(=O)CCl)cc1S(=O)(=O)N1CCCCC1` [4-B08, 2-chloro-N-[4-methoxy-3-(piperidine-1-sulfonyl)phenyl]acetamide], 0.454%; that for `Cc1cccc(Cc2cnc(NC(=O)CCl)s2)c1` [4-B09, 2-chloro-N-{5-[(3-methylphenyl)methyl]-1,3-thiazol-2-yl}acetamide], -0.447%.
Turning to `O=C(CCl)Nc1ccc(SC(F)F)cc1` [4-B10, 2-chloro-N-{4-[(difluoromethyl)sulfanyl]phenyl}acetamide], the viability at 48 h, 25 µM is -0.0257%.
For `O=C(CCl)N(Cc1ccc(F)cc1)C12CC3CC(CC(C3)C1)C2` [4-B11, N-(adamantan-1-yl)-2-chloro-N-[(4-fluorophenyl)methyl]acetamide] the value was -0.169%.
The result for `O=C(CCl)Nc1ccc2ccccc2c1` [4-B12, 2-chloro-N-(naphthalen-2-yl)acetamide] reads 0.59%; that for `Cc1ccc(C(=O)CN(C(=O)CCl)c2ccccc2)cc1` [4-B13, 2-chloro-N-[2-(4-methylphenyl)-2-oxoethyl]-N-phenylacetamide], 0.038%.
Take `O=C(CCl)Nc1ccc(S(=O)(=O)Nc2nccs2)cc1` [4-B14, 2-chloro-N-{4-[(1,3-thiazol-2-yl)sulfamoyl]phenyl}acetamide]: the viability at 48 h, 25 µM came to 1.19%.
Consider `CC(Cl)C(=O)Nc1c(C(C)C)cccc1C(C)C` (stereo not shown) [4-B15, N-[2,6-bis(propan-2-yl)phenyl]-2-chloropropanamide], for which the viability at 48 h, 25 µM came to 93.3%.
For `CC(Cl)C(=O)Nc1c(Cl)cccc1Cl` (stereo not shown) [4-B16, 2-chloro-N-(2,6-dichlorophenyl)propanamide] the value was 128%; for `CCOC(=O)c1ccccc1NC(=O)CCl` [4-B17, ethyl 2-(2-chloroacetamido)benzoate], 45.3%; for `O=C(CCl)Nc1ccccc1S(=O)(=O)C(F)F` [4-B18, 2-chloro-N-(2-difluoromethanesulfonylphenyl)acetamide], 38.2%.
For `Cc1ccc(C(=O)c2ccccc2)c(NC(=O)CCl)c1` [4-B19, N-(2-benzoyl-5-methylphenyl)-2-chloroacetamide] the value was 0.105%; for `O=C(CCl)N(Cc1ccccc1)CC(F)(F)F` [4-B20, N-benzyl-2-chloro-N-(2,2,2-trifluoroethyl)acetamide], 1.12%.
With `CN(C)C(CNC(=O)CCl)c1ccccc1` (stereo not shown) [4-B21, 2-chloro-N-[2-(dimethylamino)-2-phenylethyl]acetamide hydrochloride], the viability at 48 h, 25 µM is 79.8%.
The result for `N#Cc1nc(-c2ccco2)oc1N1CCN(C(=O)CCl)CC1` [4-B22, 5-[4-(2-chloroacetyl)piperazin-1-yl]-2-(furan-2-yl)-1,3-oxazole-4-carbonitrile] reads 0.503%; that for `O=C(CCl)Nc1ccccc1C(=O)NCc1ccccc1` [4-C03, N-benzyl-2-(2-chloroacetamido)benzamide], 0.33%; that for `Cc1c(C#N)c(NC(=O)CCl)n(Cc2cccs2)c1C` [4-C04, 2-chloro-N-{3-cyano-4,5-dimethyl-1-[(thiophen-2-yl)methyl]-1H-pyrrol-2-yl}acetamide], 0.255%.
With `CCN(CC)C(=O)c1ccc(NC(=O)CCl)cc1` [4-C05, 4-(2-chloroacetamido)-N,N-diethylbenzamide], the viability at 48 h, 25 µM came to 0.463%.
The result for `Cc1ccc(-c2cc(NC(=O)CCl)n(-c3ccccc3)n2)cc1` [4-C06, 2-chloro-N-[3-(4-methylphenyl)-1-phenyl-1H-pyrazol-5-yl]acetamide] reads -0.283%; that for `COc1ccc(C(C)(C)C)cc1NC(=O)CCl` [4-C07, N-(5-tert-butyl-2-methoxyphenyl)-2-chloroacetamide], 0.79%.
Regarding `CC(Cl)C(=O)N1c2ccccc2NC(=O)C1(C)C` (stereo not shown) [4-C08, 4-(2-chloropropanoyl)-3,3-dimethyl-1,2,3,4-tetrahydroquinoxalin-2-one], the viability at 48 h, 25 µM is 69.5%.
On to `CCCc1ccc(-c2csc(NC(=O)CCl)n2)cc1` [4-C09, 2-chloro-N-[4-(4-propylphenyl)-1,3-thiazol-2-yl]acetamide], for which the viability at 48 h, 25 µM was found to be 1.34%.
